Laboratory results taken from ChEMBL document CHEMBL4017459, “Synthesis and anti-inflammatory evaluation of N-sulfonyl anthranilic acids via Ir(III)-catalyzed C-H amidation of benzoic acids” (2017).

Key:
Type in all cases: functional
RAW264.7 [1] = assay: Anti-inflammatory activity in mouse RAW264.7 cells assessed as inhibition of LPS-induced Il-1beta secretion measured after 24 hrs by Western blot analysis relatively to control
RAW264.7 [2] = assay: Anti-inflammatory activity in mouse RAW264.7 cells assessed as inhibition of LPS-induced COX-2 expression measured after 24 hrs by Western blot analysis relatively to control
RAW264.7 [3] = assay: Potency index, ratio of ibuprofen to test compound for anti-inflammatory activity in mouse RAW264.7 cells assessed as inhibition of LPS-induced IL-beta secretion

| Structure (SMILES) | inhibition (INH) (RAW264.7 [1]) | inhibition (INH) (RAW264.7 [2]) | Ratio (RAW264.7 [3]) |
| --- | --- | --- | --- |
| Cc1ccc(S(=O)(=O)Nc2cccc(NS(=O)(=O)c3ccc(C)cc3)c2C(=O)O)cc1 | -21% | 22% |  |
| Cc1ccc(S(=O)(=O)Nc2ccc(C)cc2C(=O)O)cc1 | 20% | 49% |  |
| Cc1cccc(NS(=O)(=O)c2ccc3ccccc3c2)c1C(=O)O | 6% | 33% |  |
| Cc1cccc(NS(=O)(=O)c2ccc(Br)cc2)c1C(=O)O | 98% | 36% |  |
| Cc1ccc(S(=O)(=O)Nc2cccc(F)c2C(=O)O)cc1 | 82% | 3% | 1.5 - 2.5 |
| Cc1cccc(NS(=O)(=O)c2ccc([N+](=O)[O-])cc2)c1C(=O)O | 66% | 67% | 1.5 - 2.5 |
| Cc1ccc(S(=O)(=O)Nc2cccc([N+](=O)[O-])c2C(=O)O)cc1 | 81% | -1% | 1.5 - 2.5 |
| Cc1cccc(NS(=O)(=O)c2ccccc2)c1C(=O)O | 52% | 22% |  |
| COc1ccc(NS(=O)(=O)c2ccc(C)cc2)c(C(=O)O)c1NS(=O)(=O)c1ccc(C)cc1 | -21% | 34% |  |
| Cc1ccc(S(=O)(=O)Nc2cccc(Br)c2C(=O)O)cc1 | 42% | 18% |  |
| COc1cccc(NS(=O)(=O)c2ccc(C)cc2)c1C(=O)O | 66% | 51% | 1.5 - 2.5 |
| Cc1cccc(NS(=O)(=O)c2ccc(C(F)(F)F)cc2)c1C(=O)O | 54% | 55% |  |
| Cc1ccc(S(=O)(=O)Nc2ccc3ccccc3c2C(=O)O)cc1 | 9% | 34% |  |
| Cc1cccc(NS(=O)(=O)c2ccccc2F)c1C(=O)O | 35% | 42% |  |
| Cc1ccc(S(=O)(=O)Nc2cc(C)cc(C)c2C(=O)O)cc1 | 45% | 52% |  |
| COc1ccc(S(=O)(=O)Nc2cccc(C)c2C(=O)O)cc1 | 88% | 51% |  |
| Cc1ccc(S(=O)(=O)Nc2cccc(Cl)c2C(=O)O)cc1 | 45% | -4% |  |
| Cc1ccc(S(=O)(=O)Nc2cccc(C(F)(F)F)c2C(=O)O)cc1 | 21% | 69% |  |
| Cc1ccc(S(=O)(=O)Nc2cccc(C)c2C(=O)O)cc1 | 37% | 72% |  |
| Cc1ccc(S(=O)(=O)Nc2cc(C)cc(NS(=O)(=O)c3ccc(C)cc3)c2C(=O)O)cc1 | 66% | -8% | 1.5 - 2.5 |
| CC(C)Cc1ccc(C(C)C(=O)O)cc1 (configuration not stated) [IBUPROFEN] | 35% | 54% |  |
